# “Also recorded” adds a separate entry of the source.
# Key:
# Assay type in all cases: in vivo, human
# [1] = tested on: patients with advanced solid tumors; assay: Phase I clinical trial, twice weekly oral dosing: toxicity (NCI-CTC version 2.0) and dose limiting toxicities; settings: for Neuropathy / neurotoxicity on twice weekly regimen compared to weekly schedule: twice weekly vs weekly
# Protocol: Patients with histologically confirmed, advanced solid tumors refractory to standard therapy, ECOG performance status 0-2, and adequate live, renal and bone marrow function without symptomatic brain metastasis or pre-existing neuropathy ≧grade 2 were eligible for the trial.
# The starting dose was 60 mg/m^2 with planned dose escalation of 20 mg/m^2 for each next cohort, consisting of at least 3 patients. Cohorts were expanded to 6 patients upon occurrence of a dose limiting toxicity (DLT). No premedication was required.
# Toxicity was evaluated according to NCI-CTC (version 2.0).
# Dose limiting toxicities (DLTs) were defined as any of the following drug related events occurring during the first cycle (first 4 weeks): grade 4 neutropenia>5 days, febrile neutropenia, grade 4 thrombocytopenia or grade 3 requiring platelet transfusion, any grade 3-4 non-hematological toxicity, QTc interval>500 msec, any significant arrhythmia, any dose reduction or omission due to toxicity.
# [2] = tested on: patients; assay: Neuropathy on the weekly treatment schedule (comparison, n = 48)
# [3] = tested on: advanced solid tumors refractory to standard therapy; assay: Phase I clinical trial, twice weekly oral dosing: tumor response (modified WHO criteria)
# Protocol: Patients with histologically confirmed, advanced solid tumors refractory to standard therapy, ECOG performance status 0-2, and adequate live, renal and bone marrow function without symptomatic brain metastasis or pre-existing neuropathy ≧grade 2 were eligible for the trial. The starting dose was 60 mg/m^2 with planned dose escalation of 20 mg/m^2 for each next cohort, consisting of at least 3 patients. Cohorts were expanded to 6 patients upon occurrence of a dose limiting toxicity (DLT). No premedication was required. Tumor response was evaluated according to the modified WHO criteria.
# [4] = any cycle, 19 patients, 60-100 mg/m^2 twice weekly
structure (smiles),measurement,setting,value
"COC(=O)O[C@@]12CO[C@@H]1C[C@H](O)[C@@]1(C)C(=O)[C@H](OC(C)=O)C3=C(C)[C@@H](OC(=O)[C@H](O)[C@@H](NC(=O)OC(C)(C)C)C(C)(C)C)C[C@@](O)([C@@H](OC(=O)c4ccccc4)[C@H]21)C3(C)C [Compound I, 3′-tert-butyl-3′-N-tert-butyloxycarbonyl-4-deacetyl-3′-dephenyl-3 ′-N-debenzoyl-4-O-methoxycarbonyl-paclitaxel]",Dose limiting toxicities (DLTs),"[1]; 60 mg/m^2 twice weekly (n=3), first cycle",No dose limiting toxicities (DLTs) have been observed
same,"Dose limiting toxicities (DLTs), number","[1]; 80 mg/m^2 twice weekly (n=10), first cycle, a grade 3 fatigue and a dose-omission due to grade 2 peripheral neuropathy",2
same,Toxicity shortly after the first cycle (not meeting DLT criteria),[1]; 100 mg/m^2 twice weekly,"one patient developed grade 4 neutropenia, grade 3 fatigue and grade 3 hematuria"
same,Dose limiting toxicities (DLTs),"[1]; 100 mg/m^2 twice weekly, first three patients, first cycle",no DLTs were observed in the first three patients
same,"Neuropathy (any cycle) Grade 1, no. of patients",[1]; Twice weekly schedule (n = 19),8
same,"Neuropathy (any cycle) Grade 1, percent of patients",[1]; Twice weekly schedule (n = 19),42%
same,"Neuropathy (any cycle) Grade 2, no. of patients",[1]; Twice weekly schedule (n = 19),2
same,"Neuropathy (any cycle) Grade 2, percent of patients",[1]; Twice weekly schedule (n = 19),10%
same,"Neuropathy (any cycle) Total, no. of patients",[1]; Twice weekly schedule (n = 19),10
same,"Neuropathy (any cycle) Total, percent of patients",[1]; Twice weekly schedule (n = 19),52%
same,"Drug-related side effects: Abdominal pain, Gr 1-2 (no. of patients)",[1]; [4],2
same,"Drug-related side effects: Alopecia, Gr 1-2 (no. of patients)",[1]; [4],3
same,"Drug-related side effects: Anorexia, Gr 1-2 (no. of patients)",[1]; [4],6
same,"Drug-related side effects: Diarrhea, Gr 1-2 (no. of patients)",[1]; [4],9
same,"Drug-related side effects: Epistaxis, Gr 1-2 (no. of patients)",[1]; [4],7
same,"Drug-related side effects: Fatigue, Gr 1-2 (no. of patients)",[1]; [4],7
same,"Drug-related side effects: Fatigue, Gr 3 (no. of patients)",[1]; [4],2
same,"Drug-related side effects: Hematuria, Gr 3 (no. of patients)",[1]; [4],1
same,"Drug-related side effects: Motor neuropathy, Gr 1-2 (no. of patients)",[1]; [4],1
same,"Drug-related side effects: Myalgia, Gr 1-2 (no. of patients)",[1]; [4],3
same,"Drug-related side effects: Nausea, Gr 1-2 (no. of patients)",[1]; [4],3
same,"Drug-related side effects: Neutropenia, Gr 1-2 (no. of patients)",[1]; [4],1
same,"Drug-related side effects: Neutropenia, Gr 4 (no. of patients)",[1]; [4],1
same,"Drug-related side effects: Sens. neuropathy, Gr 1-2 (no. of patients)",[1]; [4],10
same,"Drug-related side effects: Stomatitis, Gr 1-2 (no. of patients)",[1]; [4],1
same,"Drug-related side effects: Taste disturbance, Gr 1-2 (no. of patients)",[1]; [4],7
same,"Drug-related side effects: Thrombocytopenia, Gr 1-2 (no. of patients)",[1]; [4],5
same,"Drug-related side effects: Vomiting, Gr 1-2 (no. of patients)",[1]; [4],2
same,Tolerability,[1]; twice weekly treatment regimen,well tolerated
same,Neuropathy / neurotoxicity on twice weekly regimen compared to weekly schedule,[1],reduces peripheral neuropathy; also recorded: neuropathy appears to be less frequent and less severe; also recorded: Neuropathy appears to occur less frequently and to be less severe than on a weekly treatment schedule
same,Neuropathy / neurotoxicity on twice weekly regimen compared to weekly schedule,[1]; listed as 3′-tert-butyl-3′-N-tert-butyloxycarbonyl-4-deacetyl-3′-dephenyl-3′-N-debenzoyl-4,may reduce the neurotoxicity of the drug
same,"Neuropathy (any cycle) Grade 1, no. of patients",[2]; Weekly schedule (n = 48),6
same,"Neuropathy (any cycle) Grade 1, percent of patients",[2]; Weekly schedule (n = 48),13%
same,"Neuropathy (any cycle) Grade 2, no. of patients",[2]; Weekly schedule (n = 48),19
same,"Neuropathy (any cycle) Grade 2, percent of patients",[2]; Weekly schedule (n = 48),40%
same,"Neuropathy (any cycle) Grade 3, no. of patients",[2]; Weekly schedule (n = 48),6
same,"Neuropathy (any cycle) Grade 3, percent of patients",[2]; Weekly schedule (n = 48),12%
same,"Neuropathy (any cycle) Total, no. of patients",[2]; Weekly schedule (n = 48),31
same,"Neuropathy (any cycle) Total, percent of patients",[2]; Weekly schedule (n = 48),65%
same,Main and dose limiting toxicity,[2]; weekly treatment regimen,peripheral neuropathy
same,Confirmed partial responses,[3]; 18 response-evaluable patients,three confirmed partial responses were observed in 18 response-evaluable patients
same,"Confirmed partial responses, no. of patients",[3]; of 3 prostate carcinoma patients,1
same,"Confirmed partial responses, no. of patients",[3]; of 6 response-evaluable NSCLC patients,2
same,Antitumor activity,[3]; patients with NSCLC and prostate carcinoma,Promising activity has been observed

# Reference: US20060258736A1, “DOSING REGIMEN” (Bristol-Myers Squibb Company, priority 2005, published 2006)
